{"source": "the OligoGym collection", "note": "Oligonucleotides are written 5' to 3', each unit as a sugar letter and its base; * is a phosphorothioate linkage, no mark a phosphodiester; rarer units and linkages stand in square brackets, end groups in braces. Plain capitals give the bases only. d = 2'-deoxy (DNA); r = 2'-OH (RNA); further: test concentration or dose not given here"}
{"molecular_target": "DENND5A", "assay": "reporter assay of Huesken 2005", "conditions": "siRNA", "units": {"normalised inhibition (eCFP-eYFP dual reporter)": "%"}}
{"substance": "sense rArArArUrCrArGrCrCrUrUrArUrGrGrUrCrCrCdTdT / antisense rGrGrGrArCrCrArUrArArGrGrCrUrGrArUrUrUdCdC", "normalised inhibition (eCFP-eYFP dual reporter)": 41.9}
{"substance": "sense rArArCrArGrGrGrArGrCrArArArUrGrCrArArAdTdT / antisense rUrUrUrGrCrArUrUrUrGrCrUrCrCrCrUrGrUrUdGdG", "normalised inhibition (eCFP-eYFP dual reporter)": 49.2}
{"substance": "sense rArArCrCrUrArUrUrArUrGrArGrArCrArUrUrAdTdT / antisense rUrArArUrGrUrCrUrCrArUrArArUrArGrGrUrUdTdG", "normalised inhibition (eCFP-eYFP dual reporter)": 66.3}
{"substance": "sense rArArCrUrGrGrGrGrUrGrArGrCrCrUrGrGrArAdTdT / antisense rUrUrCrCrArGrGrCrUrCrArCrCrCrCrArGrUrUdCdT", "normalised inhibition (eCFP-eYFP dual reporter)": 58.4}
{"substance": "sense rArArGrArGrGrArArUrGrGrGrArArCrArUrUrGdTdT / antisense rCrArArUrGrUrUrCrCrCrArUrUrCrCrUrCrUrUdGdT", "normalised inhibition (eCFP-eYFP dual reporter)": 50}
{"substance": "sense rArArUrGrGrCrArUrUrGrUrGrArArGrCrArCrUdTdT / antisense rArGrUrGrCrUrUrCrArCrArArUrGrCrCrArUrUdGdA", "normalised inhibition (eCFP-eYFP dual reporter)": 60.5}
{"molecular_target": "MRFAP1", "assay": "reporter assay of Huesken 2005", "conditions": "siRNA", "units": {"normalised inhibition (eCFP-eYFP dual reporter)": "%"}}
{"substance": "sense rGrGrUrArUrCrCrCrCrArUrArUrArUrUrUrGrAdTdT / antisense rUrCrArArArUrArUrArUrGrGrGrGrArUrArCrCdAdA", "normalised inhibition (eCFP-eYFP dual reporter)": 76.3}
{"substance": "sense rGrGrUrCrArArArArCrCrCrUrUrArCrCrArUrGdTdT / antisense rCrArUrGrGrUrArArGrGrGrUrUrUrUrGrArCrCdTdC", "normalised inhibition (eCFP-eYFP dual reporter)": 84.5}
{"substance": "sense rGrGrUrGrCrArGrCrUrCrGrUrGrCrGrGrCrGrGdTdT / antisense rCrCrGrCrCrGrCrArCrGrArGrCrUrGrCrArCrCdAdG", "normalised inhibition (eCFP-eYFP dual reporter)": 88.4}
{"substance": "sense rGrUrArGrUrCrArArGrCrUrArUrArArArUrGrUdTdT / antisense rArCrArUrUrUrArUrArGrCrUrUrGrArCrUrArCdAdT", "normalised inhibition (eCFP-eYFP dual reporter)": 88.3}
{"substance": "sense rGrUrCrCrCrUrGrUrGrArCrArCrUrGrArGrArCdTdT / antisense rGrUrCrUrCrArGrUrGrUrCrArCrArGrGrGrArCdCdC", "normalised inhibition (eCFP-eYFP dual reporter)": 43}
{"substance": "sense rGrUrGrArGrCrCrGrUrCrCrGrCrGrGrUrUrUrCdTdT / antisense rGrArArArCrCrGrCrGrGrArCrGrGrCrUrCrArCdGdA", "normalised inhibition (eCFP-eYFP dual reporter)": 72.2}
{"substance": "sense rGrUrGrGrGrArGrArUrGrGrArCrArArUrArUrGdTdT / antisense rCrArUrArUrUrGrUrCrCrArUrCrUrCrCrCrArCdAdG", "normalised inhibition (eCFP-eYFP dual reporter)": 79.7}
{"substance": "sense rGrUrGrUrGrArGrArCrCrArArArGrGrArGrGrAdTdT / antisense rUrCrCrUrCrCrUrUrUrGrGrUrCrUrCrArCrArCdAdG", "normalised inhibition (eCFP-eYFP dual reporter)": 98}
{"substance": "sense rGrUrGrUrGrUrUrCrCrUrGrArArUrUrUrGrArGdTdT / antisense rCrUrCrArArArUrUrCrArGrGrArArCrArCrArCdCdA", "normalised inhibition (eCFP-eYFP dual reporter)": 32.7}
{"substance": "sense rGrUrUrCrCrUrGrArArUrUrUrGrArGrGrUrGrCdTdT / antisense rGrCrArCrCrUrCrArArArUrUrCrArGrGrArArCdAdC", "normalised inhibition (eCFP-eYFP dual reporter)": 23.1}
{"substance": "sense rUrArCrArCrGrGrCrUrArGrGrArCrUrGrArUrGdTdT / antisense rCrArUrCrArGrUrCrCrUrArGrCrCrGrUrGrUrAdAdG", "normalised inhibition (eCFP-eYFP dual reporter)": 61.8}
{"substance": "sense rUrArCrGrUrUrUrCrUrGrCrUrArUrGrGrUrCrUdTdT / antisense rArGrArCrCrArUrArGrCrArGrArArArCrGrUrAdGdT", "normalised inhibition (eCFP-eYFP dual reporter)": 62.7}
{"substance": "sense rUrArGrArArGrArGrGrArCrUrCrCrArUrGrCrAdTdT / antisense rUrGrCrArUrGrGrArGrUrCrCrUrCrUrUrCrUrAdGdA", "normalised inhibition (eCFP-eYFP dual reporter)": 68.6}
{"substance": "sense rUrArGrGrArCrUrGrArUrGrArCrCrUrGrGrGrAdTdT / antisense rUrCrCrCrArGrGrUrCrArUrCrArGrUrCrCrUrAdGdC", "normalised inhibition (eCFP-eYFP dual reporter)": 70.4}
{"substance": "sense rUrArUrCrCrCrCrArUrArUrArUrUrUrGrArGrGdTdT / antisense rCrCrUrCrArArArUrArUrArUrGrGrGrGrArUrAdCdC", "normalised inhibition (eCFP-eYFP dual reporter)": 48.6}
{"substance": "sense rUrCrArCrCrGrCrCrUrCrUrGrArArArGrUrUrCdTdT / antisense rGrArArCrUrUrUrCrArGrArGrGrCrGrGrUrGrAdGdC", "normalised inhibition (eCFP-eYFP dual reporter)": 45.5}
{"substance": "sense rUrCrArUrUrCrCrUrGrGrCrUrUrUrGrGrUrGrUdTdT / antisense rArCrArCrCrArArArGrCrCrArGrGrArArUrGrAdAdC", "normalised inhibition (eCFP-eYFP dual reporter)": 52.6}
{"substance": "sense rUrCrCrArGrArUrCrArArGrArCrGrCrArGrGrUdTdT / antisense rArCrCrUrGrCrGrUrCrUrUrGrArUrCrUrGrGrAdTdC", "normalised inhibition (eCFP-eYFP dual reporter)": 54.6}
{"substance": "sense rUrCrCrCrUrGrArArCrUrUrUrGrGrGrUrCrCrCdTdT / antisense rGrGrGrArCrCrCrArArArGrUrUrCrArGrGrGrAdGdC", "normalised inhibition (eCFP-eYFP dual reporter)": 53.3}
{"substance": "sense rUrCrCrUrGrGrCrUrUrUrGrGrUrGrUrGrUrUrCdTdT / antisense rGrArArCrArCrArCrCrArArArGrCrCrArGrGrAdAdT", "normalised inhibition (eCFP-eYFP dual reporter)": 66.9}
{"substance": "sense rUrCrGrCrUrGrArCrGrCrGrCrGrArGrCrGrCrGdTdT / antisense rCrGrCrGrCrUrCrGrCrGrCrGrUrCrArGrCrGrAdCdG", "normalised inhibition (eCFP-eYFP dual reporter)": 14}
{"substance": "sense rUrCrGrGrArGrGrArUrUrGrUrArUrUrGrUrUrUdTdT / antisense rArArArCrArArUrArCrArArUrCrCrUrCrCrGrAdCdC", "normalised inhibition (eCFP-eYFP dual reporter)": 54.7}
{"substance": "sense rUrCrGrUrGrCrArGrArCrArArGrCrArArArGrCdTdT / antisense rGrCrUrUrUrGrCrUrUrGrUrCrUrGrCrArCrGrAdCdA", "normalised inhibition (eCFP-eYFP dual reporter)": 67.6}
{"substance": "sense rUrCrGrUrGrCrGrGrCrGrGrArUrArGrArGrArAdTdT / antisense rUrUrCrUrCrUrArUrCrCrGrCrCrGrCrArCrGrAdGdC", "normalised inhibition (eCFP-eYFP dual reporter)": 87.2}
{"substance": "sense rUrCrUrGrCrUrGrCrCrCrGrUrCrArUrCrCrArCdTdT / antisense rGrUrGrGrArUrGrArCrGrGrGrCrArGrCrArGrAdAdA", "normalised inhibition (eCFP-eYFP dual reporter)": 35.3}
{"substance": "sense rUrCrUrGrGrUrUrGrArGrUrGrArUrGrGrCrGrAdTdT / antisense rUrCrGrCrCrArUrCrArCrUrCrArArCrCrArGrAdAdT", "normalised inhibition (eCFP-eYFP dual reporter)": 75.7}
{"substance": "sense rUrCrUrUrCrGrUrGrArGrCrCrGrUrCrCrGrCrGdTdT / antisense rCrGrCrGrGrArCrGrGrCrUrCrArCrGrArArGrAdCdT", "normalised inhibition (eCFP-eYFP dual reporter)": 35.4}
{"substance": "sense rUrCrUrUrGrGrGrUrGrArCrCrUrGrArUrArGrCdTdT / antisense rGrCrUrArUrCrArGrGrUrCrArCrCrCrArArGrAdAdA", "normalised inhibition (eCFP-eYFP dual reporter)": 45.6}
{"substance": "sense rUrCrUrUrUrUrCrCrCrCrUrCrUrGrUrCrUrUrCdTdT / antisense rGrArArGrArCrArGrArGrGrGrGrArArArArGrAdAdA", "normalised inhibition (eCFP-eYFP dual reporter)": 35.3}
{"substance": "sense rUrGrArUrGrArCrCrUrGrGrGrArGrArArGrGrGdTdT / antisense rCrCrCrUrUrCrUrCrCrCrArGrGrUrCrArUrCrAdGdT", "normalised inhibition (eCFP-eYFP dual reporter)": 33.2}
{"substance": "sense rUrGrCrArGrCrArArUrGrGrCrArGrArArGrArAdTdT / antisense rUrUrCrUrUrCrUrGrCrCrArUrUrGrCrUrGrCrAdTdG", "normalised inhibition (eCFP-eYFP dual reporter)": 72.9}
{"substance": "sense rUrGrCrArGrCrUrCrGrUrGrCrGrGrCrGrGrArUdTdT / antisense rArUrCrCrGrCrCrGrCrArCrGrArGrCrUrGrCrAdCdC", "normalised inhibition (eCFP-eYFP dual reporter)": 33.7}
{"substance": "sense rUrGrGrArCrArArUrArUrGrCrUrGrArUrCrCrAdTdT / antisense rUrGrGrArUrCrArGrCrArUrArUrUrGrUrCrCrAdTdC", "normalised inhibition (eCFP-eYFP dual reporter)": 91.5}
{"substance": "sense rUrGrGrArGrGrUrGrCrUrGrGrArGrCrCrGrGrAdTdT / antisense rUrCrCrGrGrCrUrCrCrArGrCrArCrCrUrCrCrAdCdC", "normalised inhibition (eCFP-eYFP dual reporter)": 69.1}
{"substance": "sense rUrGrUrUrCrGrUrCrUrGrUrArCrArArGrUrUrGdTdT / antisense rCrArArCrUrUrGrUrArCrArGrArCrGrArArCrAdAdG", "normalised inhibition (eCFP-eYFP dual reporter)": 84.8}
{"substance": "sense rUrGrUrUrCrUrCrArCrUrGrArCrArCrUrArCrGdTdT / antisense rCrGrUrArGrUrGrUrCrArGrUrGrArGrArArCrAdGdA", "normalised inhibition (eCFP-eYFP dual reporter)": 68.9}
{"substance": "sense rUrGrUrUrGrGrGrArCrArGrCrCrUrArArCrUrCdTdT / antisense rGrArGrUrUrArGrGrCrUrGrUrCrCrCrArArCrAdAdA", "normalised inhibition (eCFP-eYFP dual reporter)": 85.6}
{"substance": "sense rUrUrArCrCrArUrGrUrUrGrArArArArCrArArAdTdT / antisense rUrUrUrGrUrUrUrUrCrArArCrArUrGrGrUrArAdGdG", "normalised inhibition (eCFP-eYFP dual reporter)": 91.3}
{"substance": "sense rUrUrCrUrCrArCrUrGrArCrArCrUrArCrGrUrUdTdT / antisense rArArCrGrUrArGrUrGrUrCrArGrUrGrArGrArAdCdA", "normalised inhibition (eCFP-eYFP dual reporter)": 72.2}
{"substance": "sense rUrUrGrArUrUrUrGrGrArArArArUrGrCrGrCrUdTdT / antisense rArGrCrGrCrArUrUrUrUrCrCrArArArUrCrArAdAdG", "normalised inhibition (eCFP-eYFP dual reporter)": 68.1}
{"substance": "sense rUrUrGrGrArArArArUrGrCrGrCrUrCrArCrArUdTdT / antisense rArUrGrUrGrArGrCrGrCrArUrUrUrUrCrCrArAdAdT", "normalised inhibition (eCFP-eYFP dual reporter)": 38.7}
{"substance": "sense rUrUrGrGrCrUrGrArCrArUrGrArCrArCrCrCrUdTdT / antisense rArGrGrGrUrGrUrCrArUrGrUrCrArGrCrCrArAdTdC", "normalised inhibition (eCFP-eYFP dual reporter)": 65.4}
{"substance": "sense rUrUrGrUrUrCrGrUrCrUrGrUrArCrArArGrUrUdTdT / antisense rArArCrUrUrGrUrArCrArGrArCrGrArArCrArAdGdA", "normalised inhibition (eCFP-eYFP dual reporter)": 55.5}
{"substance": "sense rUrUrUrGrArGrGrUrCrArArArArCrCrCrUrUrAdTdT / antisense rUrArArGrGrGrUrUrUrUrGrArCrCrUrCrArArAdTdG", "normalised inhibition (eCFP-eYFP dual reporter)": 82.6}
{"substance": "sense rUrUrUrGrGrArArArArUrGrCrGrCrUrCrArCrAdTdT / antisense rUrGrUrGrArGrCrGrCrArUrUrUrUrCrCrArArAdTdC", "normalised inhibition (eCFP-eYFP dual reporter)": 47.6}
{"substance": "sense rUrUrUrGrGrGrUrCrCrCrUrGrUrGrArCrArCrUdTdT / antisense rArGrUrGrUrCrArCrArGrGrGrArCrCrCrArArAdGdT", "normalised inhibition (eCFP-eYFP dual reporter)": 50.8}
